We go through 34 molecules from patent publication US7915291B2, “Hepatitis C virus inhibitors” (Bristol-Myers Squibb Company, priority 2002, dated 2011).

The structures appear in SMILES notation. A value given as a limit tells only on which side of the number the result lay.

Experiment [1] has as its target HCV NS3/4A protease complex, BMS strain (UniProt P27958, C1454S/C1711G, species not given/STRAIN_BMS). The experiment in a line: Recombinant HCV NS3/4A protease complex FRET peptide assay (BMS strain). Conditions: NS3/4A BMS strain; read-out: IC50 range. The format is biochemical, HCV genotype 1a. An outline of the steps:
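Percent inhibition taken from the linear-range fluorescence slope relative to uninhibited control, read kinetically for about 15 min at 25° C. Enzyme (2-3 nM, BMS NS3/4A complex, lysine-tailed, Ni-NTA purified) met compound for 1 min before 2 μM FRET depsipeptide substrate started cleavage.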

Experiment [2] relates to HCV replicon in Huh7 cells. Briefly: HCV replicon cell-based assay. Details: species or system HCV strain 1B. Conditions: Hepatitis C virus, Huh-7; HCV replicon, Huh7 cells; read-out: EC50 range.

For `C=C[C@@H]1C[C@]1(NC(=O)[C@@H]1C[C@@H](Oc2nccc3cc(OC)ccc23)CN1C(=O)[C@@H](NC(=O)OC(C)(C)C)[C@@H](C)OCc1ccccc1)C(=O)NS(=O)(=O)C1CC1` [Compound 110], the IC50 in experiment [1] is < 100 nM. Also, the 50% effective concentration (EC50) in experiment [2] lay in the range of 100 to 1000 nM.
With `C=C[C@@H]1C[C@]1(NC(=O)[C@@H]1C[C@@H](Oc2nccc3ccccc23)CN1C(=O)[C@@H](NC(=O)Oc1ccc(C)cc1)C(C)(C)C)C(=O)NS(=O)(=O)C1CC1` [Compound 120], the half-inhibitory concentration (IC50) in experiment [1] was < 100 nM. Moreover, the EC50 in experiment [2] lay in the range of 100 to 1000 nM.
The matching figures for `C=C[C@@H]1C[C@]1(NC(=O)[C@@H]1C[C@@H](Oc2nccc3ccccc23)CN1C(=O)[C@@H](NC(=O)Oc1ccccc1)C(C)(C)C)C(=O)NS(=O)(=O)C1CC1` [Compound 121]: < 100 nM and 100 to 1000 nM.
Regarding `C=C[C@@H]1C[C@]1(NC(=O)[C@@H]1C[C@@H](Oc2nccc3ccccc23)CN1C(=O)[C@@H](NC(=O)Oc1ccc(F)cc1)C(C)(C)C)C(=O)NS(=O)(=O)C1CC1` [Compound 122], the half-inhibitory concentration (IC50) in experiment [1] is < 100 nM. Besides, the EC50 in experiment [2] lay in the range of 100 to 1000 nM.
`C=C[C@@H]1C[C@]1(NC(=O)[C@@H]1C[C@@H](Oc2nccc3ccccc23)CN1C(=O)[C@@H](NC(=O)Oc1ccc(OC)cc1)C(C)(C)C)C(=O)NS(=O)(=O)C1CC1` [Compound 123]: the half-maximal inhibitory concentration (IC50) in experiment [1] was < 100 nM. In experiment [2], the concentration for a half-maximal effect (EC50) was 100 to 1000 nM.
Consider `C=C[C@@H]1C[C@]1(NC(=O)[C@@H]1C[C@@H](Oc2nccc3ccccc23)CN1C(=O)[C@@H](NC(=O)OCCOC)C(C)(C)C)C(=O)NS(=O)(=O)C1CC1` [Compound 124], for which the concentration for half-maximal inhibition (IC50) in experiment [1] lay within 100 to 1000 nM. Also, in experiment [2], the concentration giving a half-maximal response (EC50) lay in the range of 1000 to 10000 nM.
On the same counts, the results for `C=C[C@@H]1C[C@]1(NC(=O)[C@@H]1C[C@@H](Oc2nccc3ccccc23)CN1C(=O)[C@@H](NC(=O)OCC(C)(C)C)C(C)(C)C)C(=O)NS(=O)(=O)C1CC1` [Compound 125] are < 100 nM and < 100 nM.
As for `C=C[C@@H]1C[C@]1(NC(=O)[C@@H]1C[C@@H](Oc2nccc3ccccc23)CN1C(=O)[C@@H](NC(=O)OCCF)C(C)(C)C)C(=O)NS(=O)(=O)C1CC1` [Compound 126], in experiment [1], the half-maximal inhibitory concentration (IC50) is < 100 nM. The 50% effective concentration (EC50) in experiment [2] fell in the range of 100 to 1000 nM.
The matching figures for `C=C[C@@H]1C[C@]1(NC(=O)[C@@H]1C[C@@H](Oc2nccc3ccccc23)CN1C(=O)[C@@H](NC(=O)Oc1ccccc1OC)C(C)(C)C)C(=O)NS(=O)(=O)C1CC1` [Compound 127]: < 100 nM and 100 to 1000 nM.
Take `C=C[C@@H]1C[C@]1(NC(=O)[C@@H]1C[C@@H](Oc2nccc3ccccc23)CN1C(=O)[C@@H](NC(=O)O[C@@H]1C[C@H](C)CC[C@H]1C(C)C)C(C)(C)C)C(=O)NS(=O)(=O)C1CC1` [Compound 128]: the 50% inhibitory concentration (IC50) in experiment [1] is < 100 nM. In experiment [2], the concentration for a half-maximal effect (EC50) was 100 to 1000 nM.
Turning to `C=C[C@@H]1C[C@]1(NC(=O)[C@@H]1C[C@@H](Oc2nccc3ccccc23)CN1C(=O)[C@@H](NC(=O)OCCCCCC)C(C)(C)C)C(=O)NS(=O)(=O)C1CC1` [Compound 129], the IC50 in experiment [1] was 100 to 1000 nM. Besides, in experiment [2], the concentration for a half-maximal effect (EC50) lay within 100 to 1000 nM.
For the molecule `C=C[C@@H]1C[C@]1(NC(=O)[C@@H]1C[C@@H](Oc2nccc3ccccc23)CN1C(=O)[C@@H](NC(=O)CC(C)(C)C)C(C)(C)C)C(=O)NS(=O)(=O)C1CC1` [Compound 130], the concentration for half-maximal inhibition (IC50) in experiment [1] was < 100 nM. Also, in experiment [2], the half-maximal effective concentration (EC50) was 100 to 1000 nM.
With `C=C[C@@H]1C[C@]1(NC(=O)[C@@H]1C[C@@H](Oc2nccc3ccccc23)CN1C(=O)[C@@H](NC(=O)COC)C(C)(C)C)C(=O)NS(=O)(=O)C1CC1` [Compound 131], the IC50 in experiment [1] is 100 to 1000 nM. Further, the EC50 in experiment [2] fell in the range of 1000 to 10000 nM.
The matching figures for `C=C[C@@H]1C[C@]1(NC(=O)[C@@H]1C[C@@H](Oc2nccc3ccccc23)CN1C(=O)[C@@H](NC(=O)CCOC)C(C)(C)C)C(=O)NS(=O)(=O)C1CC1` [Compound 132]: < 100 nM and 1000 to 10000 nM.
The matching figures for `C=C[C@@H]1C[C@]1(NC(=O)[C@@H]1C[C@@H](Oc2nccc3ccccc23)CN1C(=O)[C@@H](NC(=O)[C@@H]1COc2ccccc2O1)C(C)(C)C)C(=O)NS(=O)(=O)C1CC1` [Compound 133]: 100 to 1000 nM and 1000 to 10000 nM.
Turning to `C=C[C@@H]1C[C@]1(NC(=O)[C@@H]1C[C@@H](Oc2nccc3cc(OC)ccc23)CN1C(=O)[C@@H](NC(=O)OC(C)(C)C)c1ccccc1)C(=O)NS(=O)(=O)C1CC1` [Compound 134], the IC50 in experiment [1] is < 100 nM. In addition, in experiment [2], the EC50 was 100 to 1000 nM.
For the molecule `C=C[C@@H]1C[C@]1(NC(=O)[C@@H]1C[C@@H](Oc2nccc3cc(OC)ccc23)CN1C(=O)[C@H](CC(=O)OCc1ccccc1)NC(=O)OC(C)(C)C)C(=O)NS(=O)(=O)C1CC1` [Compound 137], in experiment [1], the IC50 is < 100 nM. The concentration for a half-maximal effect (EC50) in experiment [2] was < 100 nM.
Take `C=C[C@@H]1C[C@]1(NC(=O)[C@@H]1C[C@@H](Oc2nccc3cc(OC)ccc23)CN1C(=O)[C@H](CC(=O)OC)NC(=O)OC(C)(C)C)C(=O)NS(=O)(=O)C1CC1` [Compound 138]: the half-maximal inhibitory concentration (IC50) in experiment [1] is < 100 nM. Moreover, in experiment [2], the EC50 was < 100 nM.
In the case of `C=C[C@@H]1C[C@]1(NC(=O)[C@@H]1C[C@@H](Oc2nccc3cc(OC)ccc23)CN1C(=O)[C@H](CC(=O)OC(C)(C)C)NC(=O)OC(C)(C)C)C(=O)NS(=O)(=O)C1CC1` [Compound 139], the IC50 in experiment [1] is < 100 nM. Besides, in experiment [2], the EC50 lay within 100 to 1000 nM.
On the same counts, the results for `C=C[C@@H]1C[C@]1(NC(=O)[C@@H]1C[C@@H](Oc2nccc3cc(OC)ccc23)CN1C(=O)[C@H](CC(=O)O)NC(=O)OC(C)(C)C)C(=O)NS(=O)(=O)C1CC1` [Compound 140] are < 100 nM and 1000 to 10000 nM.
As for `C=C[C@@H]1C[C@]1(NC(=O)[C@@H]1C[C@@H](Oc2nccc3cc(OC)ccc23)CN1C(=O)C(NC(=O)N[C@H](C(=O)OC)C(C)C)C(C)(C)C)C(=O)NS(=O)(=O)C1CC1` (some centres unmarked) [Compound 141], in experiment [1], the IC50 was < 100 nM. In addition, the EC50 in experiment [2] is < 100 nM.
With `C=C[C@@H]1C[C@]1(NC(=O)[C@@H]1C[C@@H](Oc2nccc3cc(OC)ccc23)CN1C(=O)[C@@H](NC(=O)N[C@@H](C(=O)OC)C(C)C)C(C)(C)C)C(=O)NS(=O)(=O)C1CC1` [Compound 142], the half-inhibitory concentration (IC50) in experiment [1] was < 100 nM. In experiment [2], the EC50 is < 100 nM.
For `C=C[C@@H]1C[C@]1(NC(=O)[C@@H]1C[C@@H](Oc2nccc3cc(OC)ccc23)CN1C(=O)[C@@H](NC(=O)OC(C)(C)C)C1CCCCC1)C(=O)NS(=O)(=O)C1CC1` [Compound 143], the IC50 in experiment [1] was < 100 nM. In experiment [2], the EC50 was < 100 nM.
For `C=C[C@@H]1C[C@]1(NC(=O)[C@@H]1C[C@@H](Oc2nccc3cc(OC)ccc23)CN1C(=O)[C@@H](NC(=O)NCC(=O)OC)C(C)(C)C)C(=O)NS(=O)(=O)C1CC1` [Compound 144], the IC50 in experiment [1] was < 100 nM. Moreover, the EC50 in experiment [2] was 100 to 1000 nM.
On the same counts, the results for `C=C[C@@H]1C[C@]1(NC(=O)[C@@H]1C[C@@H](Oc2nccc3cc(OC)ccc23)CN1C(=O)[C@@H](NC(=O)N[C@@H](C)C(=O)OC)C(C)(C)C)C(=O)NS(=O)(=O)C1CC1` [Compound 145] are < 100 nM and 100 to 1000 nM.
For the molecule `C=C[C@@H]1C[C@]1(NC(=O)[C@@H]1C[C@@H](Oc2nccc3cc(OC)ccc23)CN1C(=O)[C@@H](NC(=O)N[C@@H](Cc1c[nH]cn1)C(=O)OC)C(C)(C)C)C(=O)NS(=O)(=O)C1CC1` [Compound 147], the IC50 in experiment [1] is < 100 nM. For the same molecule, the half-maximal effective concentration (EC50) in experiment [2] lay in the range of 1000 to 10000 nM.
On the same counts, the results for `C=C[C@@H]1C[C@]1(NC(=O)[C@@H]1C[C@@H](Oc2nccc3cc(OC)ccc23)CN1C(=O)[C@@H](NC(=O)N[C@H](C(=O)OCC)C(C)C)C(C)(C)C)C(=O)NS(=O)(=O)C1CC1` [Compound 148] are < 100 nM and < 100 nM.
On the same counts, the results for `C=C[C@@H]1C[C@]1(NC(=O)[C@@H]1C[C@@H](Oc2nccc3cc(OC)ccc23)CN1C(=O)[C@@H](NC(=O)OC(C)(C)C)C1CCCC1)C(=O)NS(=O)(=O)C1CC1` [Compound 149] are < 100 nM and < 100 nM.
Regarding `C=C[C@@H]1C[C@]1(NC(=O)[C@@H]1C[C@@H](Oc2nccc3cc(OC)ccc23)CN1C(=O)[C@@H](NC(=O)N[C@H](C(=O)OCc1ccccc1)C(C)C)C(C)(C)C)C(=O)NS(=O)(=O)C1CC1` [Compound 150], the concentration for half-maximal inhibition (IC50) in experiment [1] is < 100 nM. Besides, in experiment [2], the EC50 is < 100 nM.
Turning to `C=C[C@@H]1C[C@]1(NC(=O)[C@@H]1C[C@@H](Oc2nccc3cc(OC)ccc23)CN1C(=O)[C@@H](NC(=O)N[C@H](C(=O)OC)[C@@H](C)CC)C(C)(C)C)C(=O)NS(=O)(=O)C1CC1` [Compound 151], the IC50 in experiment [1] is < 100 nM. Besides, the half-maximal effective concentration (EC50) in experiment [2] is < 100 nM.
Regarding `C=C[C@@H]1C[C@]1(NC(=O)[C@@H]1C[C@@H](Oc2nccc3cc(OC)ccc23)CN1C(=O)[C@@H](NC(=O)N[C@H](C(=O)OC(C)(C)C)C(C)C)C(C)(C)C)C(=O)NS(=O)(=O)C1CC1` [Compound 152], the 50% inhibitory concentration (IC50) in experiment [1] was < 100 nM. Moreover, in experiment [2], the 50% effective concentration (EC50) was < 100 nM.
As to `C=C[C@@H]1C[C@]1(NC(=O)[C@@H]1C[C@@H](Oc2nccc3cc(OC)ccc23)CN1C(=O)[C@@H](NC(=O)N(C)[C@H](C(=O)OC)C(C)C)C(C)(C)C)C(=O)NS(=O)(=O)C1CC1` [Compound 154], the IC50 in experiment [1] was < 100 nM. Moreover, the EC50 in experiment [2] lay within 100 to 1000 nM.
As to `C=C[C@@H]1C[C@]1(NC(=O)[C@@H]1C[C@@H](Oc2nccc3cc(OC)ccc23)CN1C(=O)[C@@H](NC(=O)OC(C)(C)C(F)(F)F)C(C)(C)C)C(=O)NS(=O)(=O)C1CC1` [Compound 155], in experiment [1], the IC50 is < 100 nM. In experiment [2], the concentration giving a half-maximal response (EC50) is < 100 nM.
As to `C=CC1C[C@]1(NC(=O)[C@@H]1C[C@@H](Oc2cc(C(F)(F)F)nc3ccccc23)CN1C(=O)[C@@H](NC(=O)OC(C)(C)C)C(C)(C)C)C(=O)NS(=O)(=O)C1CC1` (stereo partly drawn) [Compound 180, BOCNH-P3(L-tert-BuGly)-P2[(4R)-(2-trifluoromethyl quinolin-4-oxo)-S-proline]-P1(1R,2S Vinyl Acca)-CONHSO2-Cyclopropane], the 50% inhibitory concentration (IC50) in experiment [1] is < 100 nM. The EC50 in experiment [2] fell in the range of 100 to 1000 nM.
